Source: patent US9403845B2, “Pesticidally active pyridyl- and pyrimidyl- substituted pyrazole derivatives” (Syngenta Participations AG, priority 2012, dated 2016)

What was measured:
[1] = system: Bemisia tabaci (Cotton White Fly); experiment: Activity against Bemisia tabaci (cotton white fly), feeding/residual contact activity, preventive; format: in vivo; conditions: foliar, 144 h, sprayed cotton leaf discs, 12 to 18 adults, 6 days after infestation, read-out: activity (mortality and special effects)
Procedure: Activity Against Bemisia tabaci (Cotton White Fly)
(Feeding/Residual Contact Activity, Preventive)
Cotton leaf discs were placed on agar in a 24-well microtiter plate and sprayed with test solutions. After drying, the leaf discs were infested with 12 to 18 adults. After an incubation period of 6 days after infestation, samples were checked for mortality and special effects (e.g. phytotoxicity).

[2] = system: Myzus persicae (Green Peach Aphid); experiment: Activity against Myzus persicae (green peach aphid), mixed population, feeding/residual contact activity, preventive; format: in vivo; conditions: foliar, 144 h, sprayed sunflower leaf discs, aphid population of mixed ages, 6 days incubation
Text: Activity Against Myzus persicae (Green Peach Aphid)
(Mixed Population, Feeding/Residual Contact Activity, Preventive)

| SMILES | mortality at 200 ppm [1] | mortality at 200 ppm [2] | melting point |
| --- | --- | --- | --- |
| O=C1CCOc2ccc(-c3cnn(-c4cccnc4)c3)nc21 [Compound 7.004, 6-[1-(3-pyridyl)pyrazol-4-yl]-2,3-dihydropyrano[3,2-b]pyridin-4-one] | > 80% | > 80% | – |
| CO/N=C1\CCCc2sc(-c3cnn(-c4cccnc4)c3)nc21 [Compound 3.002, N-methoxy-2-[1-(3-pyridyl)pyrazol-4-yl]-6,7-dihydro-5H-1,3-benzothiazol-4-imine] | – | > 80% | – |
| CC(=O)N/N=C1\CCCc2ccc(-c3cnn(-c4cccnc4)c3)nc21 [Compound 6.007, acetic acid [2-(1-pyridin-3-yl-1H-pyrazol-4-yl)-6,7-dihydro-5H-quinolin-ylidene]-hydrazide] | – | > 80% | – |
| CC1CCc2ccc(-c3cnn(-c4cccnc4)c3)nc2C1=O (stereo not shown) [Compound 9.003] | > 80% | > 80% | – |
| CN1Cc2ccc(-c3cnn(-c4cccnc4)c3)nc2C1=O [Compound 9.001] | – | > 80% | – |
| CCO/N=C1\CS(=O)(=O)N(C)c2ccc(-c3cnn(-c4cccnc4)c3)nc21 [Compound 8.003, N-ethoxy-2-hydroxy-1-methyl-2-oxo-6-[1-(3-pyridyl)pyrazol-4-yl]pyrido[3,2-c]thiazin-4-imine] | > 80% | > 80% | – |
| Cn1c(=O)c2c(nc(-c3cnn(-c4cccnc4)c3)n2C)n(C)c1=O [Compound 9.002] | – | – | > 300 °C |
| O=C1CCCc2ccc(-c3cnn(-c4cccnc4)c3)nc21 [Compound 7.002, 2-(1-pyridin-3-yl-1H-pyrazol-4-yl)-6,7-dihydro-5H-quinolin-8-one] | > 80% | – | – |
| CC(C)O/N=C1\CCCc2ccc(-c3cnn(-c4cccnc4)c3)nc21 (single isomer, unassigned) [Compound 1.005, 2-(1-pyridin-3-yl-1H-pyrazol-4-yl)-6,7-dihydro-5H-quinolin-8-one O-isopropyl-oxime] | – | – | 128 to 130 °C |
| CON=C1c2nc(-c3cnn(-c4cccnc4)c3)ccc2N(C)S(=O)(=O)C1(C)C (single isomer, unassigned) [Compound 8.004, N-methoxy-1,3,3-trimethyl-2,2-dioxo-6-[1-(3-pyridyl)pyrazol-4-yl]pyrido[3,2-c]thiazin-4-imine] | > 80% | > 80% | – |
| CO/N=C1\CCOc2ccc(-c3cnn(-c4cccnc4)c3)nc21 [Compound 1.008, N-methoxy-6-[1-(3-pyridyl)pyrazol-4-yl]-2,3-dihydropyrano[3,2-b]pyridin-4-imine] | > 80% | > 80% | – |
